Data on 3 compounds can be found in US20040022861A1, “Process for production of nanoparticles and microparticles by spray freezing into liquid” (priority 2001, published 2004).

For series [1] the following is noted: cited from earlier work.
The next series can be described thus: Dissolution study. The series is classed as physicochemical. From the text: “FeSSIF” means fed state simulated intestinal fluid prepared by a recipe known in the art. This media is used to simulate gastrointestinal conditions. FeSSIF is the dissolution media that the powders produced in the following examples are dispersed into to quantitate the amount of drug dissolved as a function of time.
(§1) Ethyl acetate/water or dichloromethane/water mixtures were used to produce o/w emulsions for SFL micronization, and a tetrahydrofuran/water mixture was used to formulate the feed solutions. Micronized SFL powders were characterized by x-ray diffraction, surface area, scanning and transmission electron microscopy, contact angle and dissolution (SLS 0.75%/Tris 1.21% media).

A short description of series [2]: Particle size distribution of dry powders (time-of-flight). It is filed as physicochemical. On the procedure: (§2) An aliquot of 0.1 g bovine insulin was dissolved in 20 ml HCl (pH=2), the solution was then titrated by 0.1 N NaOH to pH 7.4. The feed solution was then atomized using an ISCO pump by spray freezing into liquid nitrogen. The nozzle used was polyetheretherketone tubing with a diameter of 63.5 μm. The flow rate was 14 ml/min at 4000 psi. The frozen particles were collected and dried in a tray lyophilizer.
The span index is used to described the polydispersity in a given particle size distribution and is defined as (D90-D10)/D50, where D10, D50, and D90 are the respective particle size at 10, 50, 90 percent cumulative percent undersize.

The nature of series [3]: BET specific surface area. It is filed as physicochemical. An excerpt:
The microparticles obtained were discrete and compact with almost spherical shape. […] The protein/polymer ratio has a strong effect on the entrapment efficiency and loading degree of the incorporated protein. The entrapment efficiency was high for all investigated biodegradable polymers. High polymer concentration yielded high entrapment efficiency for all observed biodegradable polymers and is illustrated at FIG. 6. Scanning Electron Micrographs (SEM) were taken of microparticles prepared by the following conditions: […] An adsorption isotherm derived by S. Brunaure, P. H. Emmett, and E.

Series [4] can be described thus: Contact angle against dissolution media (SLS/Tris). The series is classed as physicochemical.
Source text: as §1

Series [5] in a line: Chemical stability of insulin: A-21 desamido insulin level (RP-HPLC). The series is classed as physicochemical. Particulars: for percentage of A-21 desamido in the samples: stored at −4° C. On the procedure: as §2, with “lyophilizer. The resulting particles were highly porous. […] The SFL process decreased the level of covalent insulin dimer (Table 3). The mean particle size diameter as determined by time-of-flight measurement was 5.06 microns. SEM photographs reveal that the particle is an aggregate composed of small domains of insulin.” for “lyophilizer.”
(§3) The SFL insulin powder was prepared according to the procedure outlined in Example 1 with same formulation. The SFL insulin powder was stored at −4° C. The samples were taken out at 6, 12 and 24 weeks.
(§4) The products were characterized by different techniques. […] The median aerodynamic particle size was 5.06 μm.

A short description of series [6]: Insulin aggregation: covalent insulin dimer (size exclusion HPLC). It is filed as physicochemical. Particulars: for percentage of covalent insulin dimer in the samples: stored at −4° C. On the procedure: as §2, with “lyophilizer. The resulting particles were highly porous. […] The SFL process decreased the level of covalent insulin dimer (Table 3). The mean particle size diameter as determined by time-of-flight measurement was 5.06 microns. SEM photographs reveal that the particle is an aggregate composed of small domains of insulin.” for “lyophilizer.”
as §3, §4

In brackets after ≈: the same amount, converted by molar mass.

As for `NC(=O)N1c2ccccc2C=Cc2ccccc21` [CBZ, carbamazepine], the aqueous solubility – broadly, the concentration that dissolves in the medium under given conditions – in series [1] was 61 µg/mL (≈ 258 µM). Also, the “CBZ dissolved in water” value in the series “Dissolution study” (water, within 10 minutes) is listed as “about 4%”. Also, the “Span Index” value in series [2] ((D90-D10)/D50) amounted to 2.94. In series [2] (time-of-flight, Table 10), the “D10 (μm)” value was found to be 15.56 μm, the “D50 (μm)” value was found to be 39.70 μm and the “D90 (μm)” value stood at 132.33 μm. Moreover, the mean particle diameter in series [2] (time-of-flight, text Example 8) is on record as 39.70 μm.
In the case of `C#C[C@]1(O)CC[C@H]2[C@@H]3CCC4=Cc5oncc5C[C@]4(C)[C@H]3CC[C@@]21C` [Danazol], the danazol dissolved is 21% in the series “Dissolution study” (FeSSIF media, 60 minutes); “Approximately 53%” in the series “Dissolution study” (SLS 0.75%/Tris 1.21% media, 5 minutes); “about 88%” in “Dissolution study” (SLS 0.75%/Tris 1.21% media, 60 minutes). The “BET specific surface area” value in series [3] (Examples 4, 5, 8) was 0.52 m2/g. In addition, the “Specific Surface Area (m^2/g)” value in series [3] (Table 14 and text Example 30) is reported as 0.52 m^2/g. Also, the “M 10(μm)” value in series [2] (dry powders, Table 14) worked out at 7.28 μm. In addition, the “M 90(μm)” value in series [2] (dry powders, Table 14) turned out to be 51.78 μm. The “M 50(μm)” value in series [2] (dry powders, Table 14 and text Example 30) is recorded as 23.10 μm. In addition, the “Average Contact Angle (S.D.)” value in series [4] (listed as Bulk Danazol) was 64.3 (1.1)^2 °; in series [4] (listed as bulk micronized danazol), 64.3 °.
Turning to bovine insulin [Bulk insulin], the “Mean Particle Size (μm)” value in series [2] (Table 3) is listed as 14.24 μm. Besides, the “A-21 desamido insulin (percent)” value in series [5] (Table 3) was 3.03%. The “percentage of A-21 desamido in the samples” value came to 2.61 percentage in series [5] (12 weeks), 2.72 percentage in series [5] (24 weeks) and 2.46 percentage in series [5] (Initial). The “Covalent Insulin Dimer (percent)” value in series [6] (Table 3) came out at 0.25%. Moreover, the “percentage of covalent insulin dimer in the samples” value in series [6] (12 weeks) is given as 1.18 percentage; in series [6] (24 weeks), 1.15 percentage; in series [6] (Initial), 0.5 percentage.
